Common to all, as to type: in vivo
Assay [1] deals with Scirpus juncoides. The experiment in a line: Test Example 1: herbicidal effect test by treatment of rice paddy soil (immediately after seeding). The note with it: 120 g/10a active ingredient, dry weight vs untreated area, 14 days after treatment. The procedure, abridged:
(§1)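 Applied at 120 g a.i./10 ares as diluted emulsion dropped into flooded (~3 cm) paddy soil pots right after sowing seeds 0–1 cm deep; greenhouse, two replicates. At day 14, dry weight of treated versus untreated plants gives % herbicidal rate.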

The subject of assay [2] is Echinochloa crus-galli. The description is as above. The settings on record: 120 g/10a active ingredient, dry weight vs untreated area, 14 days after treatment. Summed up: as §1
Assay [3] concerns broad leaf weeds (Lindernia pyxidaria and Monochoria vaginalis). The description is as above. The note with it: 120 g/10a active ingredient, dry weight vs untreated area, 14 days after treatment. The procedure, abridged: as §1
In assay [4] the test system is Echinochloa crus-galli. The experiment in a line: Test Example 3: herbicidal effect test by treatment of dry field farming soil (one day after seeding). The settings on record: 120 g/10a active ingredient, evaluated 14 days after treatment. Summed up:
(§2)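 Dry-field alluvium pots; weed seeds incorporated in top 1 cm; soil spray of diluted emulsion 1 d after seeding, 120 g a.i./10 a in 100 L/10 a. Readout: % reduction of dry weight vs untreated, day 14, duplicates.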

In assay [5] the test system is Amaranthus viridis. The assay is described as above. The settings on record: 120 g/10a active ingredient, evaluated 14 days after treatment. Summed up:
as §2

Assay [6] concerns southern crabgrass. The description is as above. The note with it: 120 g/10a active ingredient, evaluated 14 days after treatment. Summed up: as §2
Assay [7] has as its system Chenopodium album. The description is as above. The settings on record: 120 g/10a active ingredient, evaluated 14 days after treatment. The procedure, abridged: as §2
Assay [8] has as its system Echinochloa crus-galli. The experiment in a line: Test Example 4: herbicidal effect test by treatment of leave and stem in dry field farming (seven days after seeding). The note with it: 120 g/10a active ingredient; emulsion sprayed seven days after seeding; evaluated 14 days after treatment. The procedure, abridged: (§3)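 Weeds were seeded at 20 seeds per species into the top 1 cm of alluvial upland soil in pots, then sprayed 7 days after seeding with water-diluted emulsifiable concentrate at 100 L/10 a, giving 120 g active ingredient/10 a. Duplicate pots; herbicidal rate (%) was 14 days post-treatment, from dry weight versus untreated.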

The subject of assay [9] is Amaranthus viridis. The assay is described as above. The note with it: 120 g/10a active ingredient; emulsion sprayed seven days after seeding; evaluated 14 days after treatment. The procedure, abridged: as §3
Assay [10] relates to southern crabgrass. Described as above. The settings on record: 120 g/10a active ingredient; emulsion sprayed seven days after seeding; evaluated 14 days after treatment. Summed up: as §3
Assay [11] relates to Chenopodium album. The assay is described as above. The settings on record: 120 g/10a active ingredient; emulsion sprayed seven days after seeding; evaluated 14 days after treatment. Summed up: as §3
Assay [12] relates to Scirpus juncoides. As to the kind of experiment: Test Example 2: herbicidal effect test by treatment during growing period in paddy rice cultivation (seven days after seeding). The note with it: 120 g/10a active ingredient, assessed 14 days after treatment, dry weight vs untreated area. The procedure, abridged:
(§4)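 Post-emergence paddy water application: compounds were formulated as emulsions, diluted and dropped into flooded pots seven days after sowing at a rate equivalent to 120 g per 10 ares. Efficacy was taken as dry-weight reduction relative to untreated controls after 14 days.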

Assay [13] concerns Echinochloa crus-galli. The assay is described as above. The note with it: 120 g/10a active ingredient, assessed 14 days after treatment, dry weight vs untreated area. The procedure, abridged:
as §4

The subject of assay [14] is broad leaf weeds (Lindernia pyxidaria and Monochoria vaginalis). Described as above. The settings on record: 120 g/10a active ingredient, assessed 14 days after treatment, dry weight vs untreated area. Summed up: as §4

`COC(=O)N(c1ccccc1Cc1c(C)n(CCSC)oc1=O)S(=O)(=O)C(F)(F)F` [Compound 1-592]: the “Herbicidal rate (%) Scirpus juncoides” value in the assay with Scirpus juncoides [1] and in the assay on Scirpus juncoides [12] was 90% throughout. Further, the “Herbicidal rate (%) Echinochloa crus-galli” value with Echinochloa crus-galli [2] and with Echinochloa crus-galli [13] was 90% in each case. Also, the “Herbicidal rate (%) Lindernia pyxidaria” value in assay [3] and in [14] was 90% in each case. For the same compound, the “Herbicidal rate (%) Monochoria vaginalis” value in assay [3] and in assay [14] was 90% each time. Moreover, the “herbicidal rate, Echinochloa crus-galli” value in the assay with Echinochloa crus-galli [4] stood at 90%. Also, in the assay on Amaranthus viridis [5], the “herbicidal rate, Amaranthus viridis” value came to 90%. Also, in the assay on southern crabgrass [6], the “herbicidal rate, southern crabgrass” value is reported as 90%. The “herbicidal rate, Chenopodium album” value with Chenopodium album [7] came out at 90%. For the same compound, the “herbicidal effect (herbicidal rate), Echinochloa crus-galli” value in the assay with Echinochloa crus-galli [8] was 90%. In addition, the “herbicidal effect (herbicidal rate), Amaranthus viridis” value (“herbicidal effect … Amaranthus viridis” below) with Amaranthus viridis [9] was 40%. Also, the “herbicidal effect (herbicidal rate), southern crabgrass” value (“herbicidal effect … southern crabgrass” below) with southern crabgrass [10] was found to be 90%. In the assay on Chenopodium album [11], the “herbicidal effect (herbicidal rate), Chenopodium album” value (“herbicidal effect … Chenopodium album” below) is recorded as 40%.

Regarding `COC(=O)N(c1ccccc1Cc1c(C)n(Cc2ccc(F)cc2)oc1=O)S(=O)(=O)C(F)(F)F` [Compound 1-597], the “Herbicidal rate (%) Scirpus juncoides” value in the assay on Scirpus juncoides [1] and in the assay with Scirpus juncoides [12] was 90% in each case. The “Herbicidal rate (%) Echinochloa crus-galli” value in the assay with Echinochloa crus-galli [2] and in the assay on Echinochloa crus-galli [13] was 90% each time. The “Herbicidal rate (%) Lindernia pyxidaria” value came out at 90% in assay [3] and 80% in assay [14]. The “Herbicidal rate (%) Monochoria vaginalis” value in [3] and in [14] was 100% in each case. Also, in the assay with Echinochloa crus-galli [4], the “herbicidal rate, Echinochloa crus-galli” value was 90%. Further, the “herbicidal rate, Amaranthus viridis” value in the assay on Amaranthus viridis [5] was 0%. Moreover, the “herbicidal rate, southern crabgrass” value with southern crabgrass [6] is recorded as 90%. In addition, in the assay on Chenopodium album [7], the “herbicidal rate, Chenopodium album” value turned out to be 0%. Besides, the “herbicidal effect (herbicidal rate), Echinochloa crus-galli” value in the assay with Echinochloa crus-galli [8] was 40%. Moreover, the “herbicidal effect … Amaranthus viridis” value with Amaranthus viridis [9] is listed as 40%. In the assay with southern crabgrass [10], the “herbicidal effect … southern crabgrass” value turned out to be 50%. In addition, the “herbicidal effect … Chenopodium album” value in the assay with Chenopodium album [11] amounted to 40%.

Take `COC(=O)N(c1ccccc1Cc1c(C)n(C(C)c2ccccc2)oc1=O)S(=O)(=O)C(F)(F)F` (stereo not shown) [Compound 1-598]: the “Herbicidal rate (%) Scirpus juncoides” value in the assay on Scirpus juncoides [1] and in the assay on Scirpus juncoides [12] was 90% each time. Also, the “Herbicidal rate (%) Echinochloa crus-galli” value with Echinochloa crus-galli [2] and with Echinochloa crus-galli [13] was 90% throughout. In addition, the “Herbicidal rate (%) Lindernia pyxidaria” value in assay [3] and in assay [14] was 90% each time. The “Herbicidal rate (%) Monochoria vaginalis” value in assay [3] and in assay [14] was 90% each time. Besides, the “herbicidal rate, Echinochloa crus-galli” value in the assay on Echinochloa crus-galli [4] was found to be 90%. In the assay on Amaranthus viridis [5], the “herbicidal rate, Amaranthus viridis” value is 90%. In the assay with southern crabgrass [6], the “herbicidal rate, southern crabgrass” value came to 90%. Besides, the “herbicidal rate, Chenopodium album” value in the assay with Chenopodium album [7] amounted to 90%. The “herbicidal effect (herbicidal rate), Echinochloa crus-galli” value in the assay on Echinochloa crus-galli [8] was 90%. For the same compound, the “herbicidal effect … Amaranthus viridis” value in the assay with Amaranthus viridis [9] worked out at 40%. Also, the “herbicidal effect … southern crabgrass” value with southern crabgrass [10] is given as 90%. Moreover, the “herbicidal effect … Chenopodium album” value with Chenopodium album [11] is 40%.

For the compound `CCOC(=O)N(c1ccccc1Cc1c(C)n(C(C)(C)C)oc1=O)S(=O)(=O)C(F)(F)F` [Compound 1-604], the “Herbicidal rate (%) Scirpus juncoides” value in the assay on Scirpus juncoides [1] and in the assay with Scirpus juncoides [12] was 90% each time. Further, the “Herbicidal rate (%) Echinochloa crus-galli” value in the assay on Echinochloa crus-galli [2] and with Echinochloa crus-galli [13] was 90% each time. Further, the “Herbicidal rate (%) Lindernia pyxidaria” value in [3] and in [14] was 90% throughout. Moreover, the “Herbicidal rate (%) Monochoria vaginalis” value in assay [3] and in [14] was 90% each time. Moreover, in the assay on Echinochloa crus-galli [4], the “herbicidal rate, Echinochloa crus-galli” value amounted to 90%. Besides, the “herbicidal rate, Amaranthus viridis” value in the assay with Amaranthus viridis [5] is given as 90%. The “herbicidal rate, southern crabgrass” value in the assay on southern crabgrass [6] was found to be 90%. In the assay on Chenopodium album [7], the “herbicidal rate, Chenopodium album” value is given as 90%. In the assay on Echinochloa crus-galli [8], the “herbicidal effect (herbicidal rate), Echinochloa crus-galli” value was determined as 90%. The “herbicidal effect … Amaranthus viridis” value with Amaranthus viridis [9] is recorded as 40%. Besides, the “herbicidal effect … southern crabgrass” value in the assay with southern crabgrass [10] worked out at 90%. For the same compound, in the assay with Chenopodium album [11], the “herbicidal effect … Chenopodium album” value came out at 40%.

`CCOC(=O)N(c1ccccc1Cc1c(C)n(C(C)CC)oc1=O)S(=O)(=O)C(F)(F)F` (stereo not shown) [Compound 1-605]: the “Herbicidal rate (%) Scirpus juncoides” value in the assay on Scirpus juncoides [1] and with Scirpus juncoides [12] was 90% each time. The “Herbicidal rate (%) Echinochloa crus-galli” value in the assay on Echinochloa crus-galli [2] and in the assay with Echinochloa crus-galli [13] was 90% throughout. Further, the “Herbicidal rate (%) Lindernia pyxidaria” value in assay [3] and in assay [14] was 90% in each case. Further, the “Herbicidal rate (%) Monochoria vaginalis” value in assay [3] and in assay [14] was 90% throughout. Moreover, the “herbicidal rate, Echinochloa crus-galli” value in the assay on Echinochloa crus-galli [4] is given as 90%. Moreover, in the assay with Amaranthus viridis [5], the “herbicidal rate, Amaranthus viridis” value came to 90%. Besides, the “herbicidal rate, southern crabgrass” value in the assay with southern crabgrass [6] is on record as 90%. In addition, the “herbicidal rate, Chenopodium album” value in the assay on Chenopodium album [7] is listed as 90%. Besides, in the assay on Echinochloa crus-galli [8], the “herbicidal effect (herbicidal rate), Echinochloa crus-galli” value came to 90%. Further, the “herbicidal effect … Amaranthus viridis” value in the assay on Amaranthus viridis [9] turned out to be 40%. Besides, in the assay on southern crabgrass [10], the “herbicidal effect … southern crabgrass” value was 90%. Moreover, the “herbicidal effect … Chenopodium album” value in the assay on Chenopodium album [11] is on record as 40%.

In the case of `CCOC(=O)N(c1ccccc1Cc1c(C)n(CC(C)(C)C)oc1=O)S(=O)(=O)C(F)(F)F` [Compound 1-609], the “Herbicidal rate (%) Scirpus juncoides” value in the assay with Scirpus juncoides [1] and with Scirpus juncoides [12] was 90% throughout. The “Herbicidal rate (%) Echinochloa crus-galli” value in the assay on Echinochloa crus-galli [2] and in the assay on Echinochloa crus-galli [13] was 90% each time. Moreover, the “Herbicidal rate (%) Lindernia pyxidaria” value in [3] and in assay [14] was 90% in each case. Also, the “Herbicidal rate (%) Monochoria vaginalis” value in [3] and in assay [14] was 90% each time. Further, the “herbicidal rate, Echinochloa crus-galli” value in the assay on Echinochloa crus-galli [4] is listed as 90%. For the same compound, the “herbicidal rate, Amaranthus viridis” value in the assay on Amaranthus viridis [5] turned out to be 90%. Further, in the assay on southern crabgrass [6], the “herbicidal rate, southern crabgrass” value was found to be 90%. The “herbicidal rate, Chenopodium album” value with Chenopodium album [7] was determined as 90%. Besides, the “herbicidal effect (herbicidal rate), Echinochloa crus-galli” value in the assay with Echinochloa crus-galli [8] was 90%. Also, in the assay with Amaranthus viridis [9], the “herbicidal effect … Amaranthus viridis” value is 40%. In the assay with southern crabgrass [10], the “herbicidal effect … southern crabgrass” value is reported as 90%. Moreover, the “herbicidal effect … Chenopodium album” value in the assay on Chenopodium album [11] came to 40%.

For `CCOC(=O)N(c1ccccc1Cc1c(C)n(CC(C)CC)oc1=O)S(=O)(=O)C(F)(F)F` (stereo not shown) [Compound 1-611], the “Herbicidal rate (%) Scirpus juncoides” value in the assay with Scirpus juncoides [1] and in the assay on Scirpus juncoides [12] was 90% throughout. The “Herbicidal rate (%) Echinochloa crus-galli” value in the assay on Echinochloa crus-galli [2] and in the assay with Echinochloa crus-galli [13] was 100% each time. Besides, the “Herbicidal rate (%) Lindernia pyxidaria” value came out at 90% in assay [3] and 70% in assay [14]. Also, the “Herbicidal rate (%) Monochoria vaginalis” value in [3] and in assay [14] was 80% throughout. In the assay on Echinochloa crus-galli [4], the “herbicidal rate, Echinochloa crus-galli” value came out at 70%. Moreover, in the assay on Amaranthus viridis [5], the “herbicidal rate, Amaranthus viridis” value came to 40%. The “herbicidal rate, southern crabgrass” value in the assay with southern crabgrass [6] was determined as 70%. Further, the “herbicidal rate, Chenopodium album” value in the assay with Chenopodium album [7] is reported as 40%. In the assay on Echinochloa crus-galli [8], the “herbicidal effect (herbicidal rate), Echinochloa crus-galli” value was found to be 80%. The “herbicidal effect … Amaranthus viridis” value in the assay with Amaranthus viridis [9] came out at 60%. Besides, the “herbicidal effect … southern crabgrass” value with southern crabgrass [10] stood at 70%. Besides, the “herbicidal effect … Chenopodium album” value in the assay with Chenopodium album [11] came to 50%.

Values taken from patent publication US11109593B2, “Isoxazolin-5-one derivative and herbicide containing same as active ingredient” (HOKKO CHEMICAL INDUSTRY CO., LTD., priority 2017, dated 2021).
